Measured values reported in publication PMC5218480 (PLoS ONE, 2017).

Tested on: MV-4-11 cells
Assay: Gene expression microarray analysis (Affymetrix PrimeView) and GSEA
Assay type: cell-based, human
Parameters: RFU PODN (11730768_x_at) / Fold change /veh PODN (11730768_x_at) / RFU LINC00158 (11744669_a_at) / Fold change /veh LINC00158 (11744669_a_at) / RFU DUSP10 (11751237_a_at) / Fold change /veh DUSP10 (11751237_a_at) / RFU ID3 (11757404_x_at) / Fold change /veh ID3 (11757404_x_at) / RFU PLEKHG5 (11737974_s_at) / Fold change /veh PLEKHG5 (11737974_s_at) / RFU LRRC4B (11730491_at) / Fold change /veh LRRC4B (11730491_at) / RFU GIMAP4 (11747438_a_at) / Fold change /veh GIMAP4 (11747438_a_at) / RFU KRT8 (11758183_x_at) / Fold change /veh KRT8 (11758183_x_at) / RFU CNN1 (11734310_a_at) / Fold change /veh CNN1 (11734310_a_at) / RFU VPS37D (11726825_at) / Fold change /veh VPS37D (11726825_at) / RFU C10orf10 (11716522_x_at) / Fold change /veh C10orf10 (11716522_x_at) / RFU KIR2DL2 /// KIR2DL4 /// KIR2DL5A /// KIR2DL5B /// KIR2DS1 /// KIR2DS2 /// KIR2DS3 /// KIR2DS4 /// KIR3DL3 /// KIR3DL3 /// KIR3DS1 (11738374_at) / Fold change /veh KIR2DL2 /// KIR2DL4 /// KIR2DL5A /// KIR2DL5B /// KIR2DS1 /// KIR2DS2 /// KIR2DS3 /// KIR2DS4 /// KIR3DL3 /// KIR3DL3 /// KIR3DS1 (11738374_at) / RFU C1QL1 (11718748_at) / Fold change /veh C1QL1 (11718748_at) / RFU TMPRSS4 (11747572_a_at) / Fold change /veh TMPRSS4 (11747572_a_at) / RFU HAMP (11756126_x_at) / Fold change /veh HAMP (11756126_x_at) / RFU RNFT2 (11725882_a_at) / Fold change /veh RNFT2 (11725882_a_at) / RFU NR4A2 (11747474_a_at) / Fold change /veh NR4A2 (11747474_a_at) / RFU ABCC12 (11746883_a_at) / Fold change /veh ABCC12 (11746883_a_at) / RFU TMEM136 (11760407_x_at) / Fold change /veh TMEM136 (11760407_x_at) / RFU CLDN22 /// WWC2 (11732394_at) / Fold change /veh CLDN22 /// WWC2 (11732394_at) / RFU HLA-DPB1 (11760878_x_at) / Fold change /veh HLA-DPB1 (11760878_x_at) / RFU SPINT1 (11716480_a_at) / Fold change /veh SPINT1 (11716480_a_at) / RFU GAP43 (11754022_s_at) / Fold change /veh GAP43 (11754022_s_at) / RFU A4GNT (11735810_at) / Fold change /veh A4GNT (11735810_at) / RFU PRB3 (11715151_x_at) / Fold change /veh PRB3 (11715151_x_at) / RFU TUBB4B (11761932_at) / Fold change /veh TUBB4B (11761932_at) / RFU CAPN14 (11732068_a_at) / Fold change /veh CAPN14 (11732068_a_at) / RFU TMCC2 (11721928_a_at) / Fold change /veh TMCC2 (11721928_a_at) / RFU IRGQ (11745062_a_at) / Fold change /veh IRGQ (11745062_a_at) / RFU FAM174B (11720279_a_at) / Fold change /veh FAM174B (11720279_a_at) / RFU TMPRSS4 (11748680_a_at) / Fold change /veh TMPRSS4 (11748680_a_at) / RFU FAM212B (11763350_a_at) / Fold change /veh FAM212B (11763350_a_at) / RFU PLEKHG5 (11743358_a_at) / Fold change /veh PLEKHG5 (11743358_a_at) / RFU ZSCAN30 (11745921_a_at) / Fold change /veh ZSCAN30 (11745921_a_at) / RFU CMKLR1 (11741424_a_at) / Fold change /veh CMKLR1 (11741424_a_at) / RFU LOC101060620 /// MAPK8IP1 (11723275_at) / Fold change /veh LOC101060620 /// MAPK8IP1 (11723275_at) / RFU SPTSSB (11747773_x_at) / Fold change /veh SPTSSB (11747773_x_at) / RFU PRSS12 (11739890_at) / Fold change /veh PRSS12 (11739890_at) / RFU BIN1 (11741810_x_at) / Fold change /veh BIN1 (11741810_x_at) / RFU WNT11 (11732464_a_at) / Fold change /veh WNT11 (11732464_a_at) / RFU C10orf10 (11716521_a_at) / Fold change /veh C10orf10 (11716521_a_at) / RFU C5orf56 (11738089_at) / Fold change /veh C5orf56 (11738089_at) / RFU CYB561 (11721691_x_at) / Fold change /veh CYB561 (11721691_x_at) / RFU ANKRD19P (11752326_a_at) / Fold change /veh ANKRD19P (11752326_a_at) / RFU OR2T12 /// OR2T33 /// OR2T8 (11738714_s_at) / Fold change /veh OR2T12 /// OR2T33 /// OR2T8 (11738714_s_at) / RFU VCAN (11748164_a_at) / Fold change /veh VCAN (11748164_a_at) / RFU JSRP1 (11732532_at) / Fold change /veh JSRP1 (11732532_at) / RFU KRTAP10-11 (11738290_x_at) / Fold change /veh KRTAP10-11 (11738290_x_at) / RFU MYO3A (11730013_a_at) / Fold change /veh MYO3A (11730013_a_at) / RFU EBF3 (11725865_a_at) / Fold change /veh EBF3 (11725865_a_at) / RFU CAMK2N1 (11719241_x_at) / Fold change /veh CAMK2N1 (11719241_x_at) / RFU C5orf56 (11738088_a_at) / Fold change /veh C5orf56 (11738088_a_at) / RFU OLFML3 (11715873_a_at) / Fold change /veh OLFML3 (11715873_a_at) / RFU LOC100653217 /// NTM (11731650_a_at) / Fold change /veh LOC100653217 /// NTM (11731650_a_at) / RFU MAPK11 (11762145_a_at) / Fold change /veh MAPK11 (11762145_a_at) / RFU FIZ1 (11724087_x_at) / Fold change /veh FIZ1 (11724087_x_at) / RFU OASL (11726364_x_at) / Fold change /veh OASL (11726364_x_at) / RFU SOX15 (11748057_x_at) / Fold change /veh SOX15 (11748057_x_at) / RFU CD79A (11719716_a_at) / Fold change /veh CD79A (11719716_a_at) / RFU HIST1H1D (11736915_at) / Fold change /veh HIST1H1D (11736915_at) / RFU CASKIN2 (11723855_a_at) / Fold change /veh CASKIN2 (11723855_a_at) / RFU LOC730098 (11760151_x_at) / Fold change /veh LOC730098 (11760151_x_at) / RFU OR4N2 (11742367_at) / Fold change /veh OR4N2 (11742367_at) / RFU PRRT2 (11749266_a_at) / Fold change /veh PRRT2 (11749266_a_at) / RFU SNX32 (11753110_a_at) / Fold change /veh SNX32 (11753110_a_at) / RFU CDHR5 (11726645_a_at) / Fold change /veh CDHR5 (11726645_a_at) / RFU RCAN1 (11760418_a_at) / Fold change /veh RCAN1 (11760418_a_at) / RFU FAM167A (11723789_a_at) / Fold change /veh FAM167A (11723789_a_at) / RFU FAM26E (11764081_at) / Fold change /veh FAM26E (11764081_at) / RFU ISYNA1 (11749810_s_at) / Fold change /veh ISYNA1 (11749810_s_at) / RFU ACY1 (11761880_at) / Fold change /veh ACY1 (11761880_at) / RFU 11764098_at / Fold change /veh 11764098_at / RFU SAMD14 (11745864_x_at) / Fold change /veh SAMD14 (11745864_x_at) / RFU NPB (11741838_a_at) / Fold change /veh NPB (11741838_a_at) / RFU TMPRSS6 (11731388_a_at) / Fold change /veh TMPRSS6 (11731388_a_at) / RFU KRTAP10-2 (11738614_at) / Fold change /veh KRTAP10-2 (11738614_at) / RFU ARHGAP8 /// PRR5-ARHGAP8 (11727945_x_at) / Fold change /veh ARHGAP8 /// PRR5-ARHGAP8 (11727945_x_at) / RFU KRTAP5-7 /// NADSYN1 (11734609_at) / Fold change /veh KRTAP5-7 /// NADSYN1 (11734609_at) / RFU RASL12 (11751679_a_at) / Fold change /veh RASL12 (11751679_a_at) / RFU CDKN2B (11736163_a_at) / Fold change /veh CDKN2B (11736163_a_at) / RFU PRF1 (11729649_at) / Fold change /veh PRF1 (11729649_at) / RFU, ZNF638 /// ZNF638-IT1 / Fold change vs veh, ZNF638 /// ZNF638-IT1 / RFU, PANK3 / Fold change vs veh, PANK3 / RFU, SH3YL1 / Fold change vs veh, SH3YL1 / RFU, ZEB2 / Fold change vs veh, ZEB2 / RFU, NRIP1 / Fold change vs veh, NRIP1 / RFU, PTTG1IP / Fold change vs veh, PTTG1IP / RFU, CAPN2 / Fold change vs veh, CAPN2 / RFU, MED14 / Fold change vs veh, MED14 / RFU, SNORA58 / Fold change vs veh, SNORA58 / RFU, C1orf63 / Fold change vs veh, C1orf63 / RFU, LRRFIP1 / Fold change vs veh, LRRFIP1 / RFU, NDUFAF7 / Fold change vs veh, NDUFAF7 / RFU, SLC12A2 / Fold change vs veh, SLC12A2 / RFU, IBTK / Fold change vs veh, IBTK / RFU, ESF1 / Fold change vs veh, ESF1 / Fold change vs veh, TMEM50B / RFU, TAOK1 / Fold change vs veh, TAOK1 / RFU, ACBD3 / Fold change vs veh, ACBD3 / RFU, TMA16 / Fold change vs veh, TMA16 / RFU, RWDD3 / Fold change vs veh, RWDD3 / RFU, BCAT1 / Fold change vs veh, BCAT1 / RFU, EDEM3 / Fold change vs veh, EDEM3 / RFU, TMEM33 / Fold change vs veh, TMEM33 / RFU, WDR75 / Fold change vs veh, WDR75 / RFU, AHCTF1 / Fold change vs veh, AHCTF1 / RFU, TFRC / Fold change vs veh, TFRC / RFU, ZDHHC17 / Fold change vs veh, ZDHHC17 / RFU, NOM1 / Fold change vs veh, NOM1 / RFU, ARL8B / Fold change vs veh, ARL8B / RFU, ZBTB11 / Fold change vs veh, ZBTB11 / RFU, TAMM41 / Fold change vs veh, TAMM41 / RFU, KIAA1704 /// LOC100996395 / Fold change vs veh, KIAA1704 /// LOC100996395 / RFU, ING1 / Fold change vs veh, ING1 / RFU, TRMT61B / Fold change vs veh, TRMT61B / RFU, FUBP3 / Fold change vs veh, FUBP3 / RFU, TP53 / Fold change vs veh, TP53 / RFU, TNKS2 / Fold change vs veh, TNKS2 / RFU, ZFP14 / Fold change vs veh, ZFP14 / RFU, ACTR2 / Fold change vs veh, ACTR2 / RFU, PPP3R1 / Fold change vs veh, PPP3R1 / RFU, PIK3R1 / Fold change vs veh, PIK3R1 / RFU, HNRNPA1 / Fold change vs veh, HNRNPA1 / RFU, RNF170 / Fold change vs veh, RNF170 / RFU, ZNF28 / Fold change vs veh, ZNF28 / RFU, RNGTT / Fold change vs veh, RNGTT / RFU, OGT / Fold change vs veh, OGT / RFU, BRD1 / Fold change vs veh, BRD1 / RFU, MARS / Fold change vs veh, MARS / RFU, ZNF655 / Fold change vs veh, ZNF655 / RFU, FAHD1 / Fold change vs veh, FAHD1 / RFU, BDP1 / Fold change vs veh, BDP1 / RFU, LRRCC1 / Fold change vs veh, LRRCC1 / RFU, ARID1A / Fold change vs veh, ARID1A / RFU, ZNF146 / Fold change vs veh, ZNF146 / RFU, ZNF330 / Fold change vs veh, ZNF330 / RFU, GPN3 / Fold change vs veh, GPN3 / RFU, C9orf123 / Fold change vs veh, C9orf123 / RFU, N4BP2L2 / Fold change vs veh, N4BP2L2 / RFU, ARFIP1 / Fold change vs veh, ARFIP1 / RFU, FAM179B / Fold change vs veh, FAM179B / RFU, BCL10 / Fold change vs veh, BCL10 / RFU, UHRF1BP1L / Fold change vs veh, UHRF1BP1L / RFU, BET1 / Fold change vs veh, BET1 / RFU, CNOT2 / Fold change vs veh, CNOT2 / RFU, ZNF268 / Fold change vs veh, ZNF268 / Fold change vs veh, ZNF507 / RFU, DGCR2 / Fold change vs veh, DGCR2 / RFU, WDSUB1 / Fold change vs veh, WDSUB1 / Fold change vs veh, HSP90B1 /// MIR3652 / RFU, ADSS / Fold change vs veh, ADSS / RFU, GK / Fold change vs veh, GK / RFU, ZNF148 / Fold change vs veh, ZNF148 / RFU, TAF9 / Fold change vs veh, TAF9 / RFU, SLC1A5 / Fold change vs veh, SLC1A5 / RFU, SLMO2 / Fold change vs veh, SLMO2 / RFU, ABCC4 / Fold change vs veh, ABCC4 / RFU, LOC101060439 /// RAP1B / Fold change vs veh, LOC101060439 /// RAP1B / RFU, RFX7 / Fold change vs veh, RFX7 / RFU, GTPBP10 / Fold change vs veh, GTPBP10 / RFU, CNEP1R1 / Fold change vs veh, CNEP1R1 / RFU, BIVM-ERCC5 /// ERCC5 / Fold change vs veh, BIVM-ERCC5 /// ERCC5 / RFU, ILF3 / Fold change vs veh, ILF3 / RFU 11762660_at / Fold change /veh 11762660_at / RFU VCAN (11757783_s_at) / Fold change /veh VCAN (11757783_s_at) / RFU DDX43 (11728927_at) / Fold change /veh DDX43 (11728927_at) / RFU KRT8 (11758188_x_at) / Fold change /veh KRT8 (11758188_x_at) / RFU NKD1 (11759106_at) / Fold change /veh NKD1 (11759106_at) / RFU SRD5A1 (11742802_a_at) / Fold change /veh SRD5A1 (11742802_a_at) / RFU TPSAB1 /// TPSB2 (11721975_s_at) / Fold change /veh TPSAB1 /// TPSB2 (11721975_s_at) / RFU GSTM3 (11746129_a_at) / Fold change /veh GSTM3 (11746129_a_at) / RFU IL23R (11737362_x_at) / Fold change /veh IL23R (11737362_x_at) / RFU TMEM51 (11727254_a_at) / Fold change /veh TMEM51 (11727254_a_at) / RFU PIWIL2 (11732686_x_at) / Fold change /veh PIWIL2 (11732686_x_at) / RFU ORM1 (11744905_x_at) / Fold change /veh ORM1 (11744905_x_at) / RFU CCDC152 (11743942_at) / Fold change /veh CCDC152 (11743942_at) / RFU ECM1 (11717891_a_at) / Fold change /veh ECM1 (11717891_a_at) / RFU IL23R (11748794_a_at) / Fold change /veh IL23R (11748794_a_at) / RFU TNFAIP8L3 (11732012_x_at) / Fold change /veh TNFAIP8L3 (11732012_x_at) / RFU MBOAT4 (11741988_at) / Fold change /veh MBOAT4 (11741988_at) / RFU 11764193_at / Fold change /veh 11764193_at / RFU TMEM53 (11763286_at) / Fold change /veh TMEM53 (11763286_at) / RFU MAGEB2 (11727129_at) / Fold change /veh MAGEB2 (11727129_at) / RFU TMEM200A (11744735_a_at) / Fold change /veh TMEM200A (11744735_a_at) / RFU CCDC152 (11751479_a_at) / Fold change /veh CCDC152 (11751479_a_at) / RFU FAM211A (11726209_a_at) / Fold change /veh FAM211A (11726209_a_at) / RFU RGS16 (11746705_a_at) / Fold change /veh RGS16 (11746705_a_at) / RFU VCAN (11755009_s_at) / Fold change /veh VCAN (11755009_s_at) / RFU RHOB (11743442_s_at) / Fold change /veh RHOB (11743442_s_at) / RFU RGS16 (11720943_a_at) / Fold change /veh RGS16 (11720943_a_at) / RFU RGS16 (11720944_at) / Fold change /veh RGS16 (11720944_at) / RFU, VPS4B / Fold change vs veh, VPS4B / RFU, CREB1 / Fold change vs veh, CREB1 / RFU, DNAJC13 / Fold change vs veh, DNAJC13 / RFU, GNAQ / Fold change vs veh, GNAQ / RFU, CDK5R1 / Fold change vs veh, CDK5R1 / RFU, ZRANB3 / Fold change vs veh, ZRANB3 / RFU, CUL4A / Fold change vs veh, CUL4A / RFU, CCNY / Fold change vs veh, CCNY / RFU, UFL1 / Fold change vs veh, UFL1 / RFU, COG3 / Fold change vs veh, COG3 / RFU, DIAPH2 / Fold change vs veh, DIAPH2 / RFU, SKA2 / Fold change vs veh, SKA2 / RFU, AFF3 / Fold change vs veh, AFF3 / RFU, LMF1 / Fold change vs veh, LMF1 / RFU, IPO11 / Fold change vs veh, IPO11 / RFU, DFFB / Fold change vs veh, DFFB / RFU, FOXP1 / Fold change vs veh, FOXP1 / RFU, CARD8 / Fold change vs veh, CARD8 / RFU, STRN3 / Fold change vs veh, STRN3 / RFU, ADK / Fold change vs veh, ADK / RFU, RASSF2 / Fold change vs veh, RASSF2 / RFU, WIPF1 / Fold change vs veh, WIPF1 / RFU, LARP1B / Fold change vs veh, LARP1B / RFU, RASA1 / Fold change vs veh, RASA1 / RFU, RB1 / Fold change vs veh, RB1 / RFU, PPFIA1 / Fold change vs veh, PPFIA1 / RFU, MAT2A / Fold change vs veh, MAT2A / RFU, CCT5 / Fold change vs veh, CCT5 / RFU, WDR92 / Fold change vs veh, WDR92 / RFU, CUX1 / Fold change vs veh, CUX1 / RFU, TTC7A / Fold change vs veh, TTC7A / RFU, TMEM135 / Fold change vs veh, TMEM135 / RFU, DEPTOR / Fold change vs veh, DEPTOR / RFU, CPM / Fold change vs veh, CPM / RFU, DNAJB6 / Fold change vs veh, DNAJB6 / RFU, CACNA2D3 / Fold change vs veh, CACNA2D3 / RFU, DTX4 / Fold change vs veh, DTX4 / RFU, TFCP2 / Fold change vs veh, TFCP2 / RFU, GMCL1 /// GMCL1P1 / Fold change vs veh, GMCL1 /// GMCL1P1 / RFU, AEBP2 / Fold change vs veh, AEBP2 / RFU, SNHG1 /// SNORD22 /// SNORD25 /// SNORD26 /// SNORD27 /// SNORD28 /// SNORD29 /// SNORD31 / Fold change vs veh, SNHG1 /// SNORD22 /// SNORD25 /// SNORD26 /// SNORD27 /// SNORD28 /// SNORD29 /// SNORD31 / Fold change (Aza/veh), C12orf56 (ProbeSet 11735607_a_at) / Fold change (ACY-1035/veh), C12orf56 (ProbeSet 11735607_a_at) / Fold change (Aza/veh), FGFR1OP (ProbeSet 11751329_s_at) / Fold change (ACY-1035/veh), FGFR1OP (ProbeSet 11751329_s_at) / Fold change (Aza/veh), VPS36 (ProbeSet 11739960_a_at) / Fold change (ACY-1035/veh), VPS36 (ProbeSet 11739960_a_at) / RFU SYPL1 (11715823_x_at) / Fold change /veh SYPL1 (11715823_x_at) / RFU IGFBP7 (11715501_s_at) / Fold change /veh IGFBP7 (11715501_s_at) / RFU REEP3 (11722064_at) / Fold change /veh REEP3 (11722064_at) / RFU IGLL1 (11728026_x_at) / Fold change /veh IGLL1 (11728026_x_at): dose or concentration left out as unconfirmed
Settings: ProbeSet 11725885_a_at; LIST B

For `Nc1ncn([C@@H]2O[C@H](CO)[C@@H](O)[C@H]2O)c(=O)n1` [azacitidine], the “Fold change vs veh, CNEP1R1” value was 0.86.
